Assay results published in article PMC6154694, “Absorption, Metabolic Stability, and Pharmacokinetics of Ginger Phytochemicals” (Molecules : A Journal of Synthetic Chemistry and Natural …, 2017).

Assays:
[1] = Mouse pharmacokinetic study of oral GE with and without ketoconazole, plasma with and without β-glucuronidase treatment; format: in vivo, male mice (C57BL6J); details: for Concentration Ratio (Total/Free) of GE Phenolics: GE administered group; for Concentration Ratio (Total/Free) of GE Phenolics / concentration at 0 h / concentration at 0.087 h / concentration at 0.167 h / concentration at 0.25 h / concentration at 0.5 h / concentration at 1 h / concentration at 2 h / concentration at 3 h / concentration at 4 h / concentration at 6 h / concentration at 8 h / concentration at 12 h: mouse plasma; for AUC(0-t) / Cmax / Tmax / concentration at 0 h / concentration at 0.087 h / concentration at 0.167 h / concentration at 0.25 h / concentration at 0.5 h / concentration at 1 h / concentration at 2 h / concentration at 3 h / concentration at 4 h / concentration at 6 h / concentration at 8 h / concentration at 12 h: male, C57BL6J; for AUC(0-t) / Cmax / Tmax: mouse, plasma, po, 250 mg/kg
Procedure: A solution formulation of GE was prepared by using 5% ethanol, 5% Tween 80, 40% polyethylene glycol, and 50% corn oil. The dose volume was 10 mL/kg and the dose administered was 250 mg/kg GE.
Pharmacokinetic study in male mice (C57BL6J, Harlan Laboratories, Indianapolis, IN, USA) was run with 36 animals in each group at a GE dose of 250 mg/kg with a dose volume of 10 mL/kg. One group was given GE alone and in the second group GE was co-administered with KTZ (50 mg/kg). A terminal sampling design was used to collect blood samples at 0 (pre-dose), 0.08, 0.16, 0.25, 0.5, 1, 2, 3, 4, 6, 8, and 12 h. At each time, 1 mL of blood was collected in ethylenediaminetetraacetic acid di-potassium salt (K2EDTA) tubes (BD Biosciences, Franklin Lakes, NJ, USA). Plasma was separated by centrifugation of samples at 4000 rpm for 10 min and stored below −60 °C till bioanalysis. All experiments were performed with approval from the Institutional Animal Care and Use Committee (IACUC, approval code: A14031). All animals were acclimatized for five days before dosing in the experimental area. Food and water was provided ad libitum throughout the study period. Animals were marked and housed (three per cage, n = 36 per group) in polypropylene cages and maintained in controlled environmental conditions with 12 h light and dark cycles. The temperature and humidity of the room was maintained between 22 ± 3 °C and 30% to 50%, respectively, and approximately 10–12 fresh air change cycles per hour.
To confirm the presence of GE glucuronide conjugates, plasma (100 μL) was treated with βgd (20 μL, 500 units) and incubated at 37 °C for 1 h. Each sample was analyzed twice with and without β-gd treatment. Samples without gde treatment were diluted with 20 μL of buffer. Total (conjugated + free) and free ginger phenolics data were reported following bioanalysis.
All in vitro and in vivo samples were processed by protein precipitation method. An aliquot (100 μL) of the sample was spiked with 200 μL of acetonitrile containing dihydrocapsaicin as internal standard (IS) and vortex mixed for 3 min. The tubes were centrifuged at 12,000 rpm for 10 min and an aliquot of supernatant was transferred into autosampler vials for analysis. The stock solutions of 6G, 8G, 10G, and 6S were prepared in ACN/water (70:30) at 1 mg/mL. A calibration curve (CC) range of 2–2000 ng/mL was employed for the quantification of analytes and IS concentration was 150 ng/mL for each analysis. The CC consisted of blank, blank with IS and seven non-zero calibration standards. The calibration standards were within ±15% of the nominal concentration and lower limit of quantification was within ±20% of nominal. All samples were analyzed using liquid chromatography tandem mass spectrometry (LC-MS/MS) method (Agilent 6410 series, Santa Clara, CA, USA). A positive ionization mode with multiple reaction monitoring (MRM, m/z Q1/Q3) of 6G (m/z 277.1/177.1, retention time (RT) 2.0 min), 8G (m/z 305.1/177.1, RT 4.0 min), 10G (m/z 333.1/177.1, RT 7.7 min), 6S (m/z 277.1/137.1, RT 5.1 min), and IS (m/z 308.2/137.1, RT 3.4 min) was employed. The ion spray voltage was set at 3500 V, ionization temperature was set to 300 °C and drying gas flow rate was 10 L/min. Data acquisition and quantitation were performed using Mass Hunter software (Agilent Technologies, Wilmington, DE, USA). Separation was achieved using HP1100 series LC (Agilent Technologies) with an Agilent Zorbax reversed-phase (SB-C18, 2.1 × 50 mm, 5.0 μm) column. A gradient method was employed to separate the individual GE phenolics using mobile phase A (0.1% formic acid in water) and mobile phase B (Acetonitrile). The gradient elution method with 50% B at 0 min, 90% B at 5 min, held for 2.1 min, back to 50% B at 7.1 min with a flow rate of 0.2 mL/min. An injection volume of 2 μL was used for analysis. […]

[2] = Liver microsomal stability, human; format: in vitro ADME; details: protein 0.5 mg/mL
Procedure: Pooled liver microsomes from CD1 mouse, IGS Sprague-Dawley rat, Beagle dog, and mixed gender human were used for assays. Incubations (1 mL) consisted of liver microsomes (0.5 mg/mL), NADPH (1 mM) and 100 mM sodium phosphate buffer (pH 7.4). Following pre-incubation (10 min, 37 °C), reactions were initiated by spiking ACN/DMSO (80:20) stock solutions of GE phenolics (5 μL, 10 μM). Samples (100 μL) were withdrawn at 0, 5, 10, 15, 20 and 30 min and quenched with 200 μL acetonitrile containing internal standard. Concomitant NADPH-free control incubations were prepared similarly.

[3] = 250 mg/kg GE + 50 mg/kg KTZ oral, +KTZ −βgd

CCCCC[C@H](O)CC(=O)CCc1ccc(O)c(OC)c1 [6G, 6-gingerol]
AUClast Ratio ([1]; +KTZ +βgd, reference GE group co-administered with KTZ untreated with βgd): 63 | AUClast Ratio ([1]; +KTZ +βgd, reference GE group untreated with βgd): 498 | AUClast Ratio ([1]; +KTZ −βgd, reference GE group untreated with βgd): 8 | Concentration Ratio (Total/Free) of GE Phenolics ([1]; 0 h): 0 | Concentration Ratio (Total/Free) of GE Phenolics ([1]; 0.087 h): 0 | Concentration Ratio (Total/Free) of GE Phenolics ([1]; 0.167 h): 0 | Concentration Ratio (Total/Free) of GE Phenolics ([1]; 0.25 h): 3659 | Concentration Ratio (Total/Free) of GE Phenolics ([1]; 0.5 h): 8723 | Concentration Ratio (Total/Free) of GE Phenolics ([1]; 1 h): 0 | Concentration Ratio (Total/Free) of GE Phenolics ([1]; 2 h): 53 | Concentration Ratio (Total/Free) of GE Phenolics ([1]; 3 h): 290 | Concentration Ratio (Total/Free) of GE Phenolics ([1]; 4 h): 491 | Concentration Ratio (Total/Free) of GE Phenolics ([1]; 6 h): 391 | Concentration Ratio (Total/Free) of GE Phenolics ([1]; 8 h): 0 | Concentration Ratio (Total/Free) of GE Phenolics ([1]; 12 h): 0 | AUC(0-t) ([1]; 250 mg/kg GE oral, −βgd): 37.7 ng·h/mL | Cmax ([1]; 250 mg/kg GE oral, −βgd): 27.2 ng/mL | Tmax ([1]; 250 mg/kg GE oral, −βgd): 2 h | AUC(0-t) [1, 3]: 300 ng·h/mL | Cmax [1, 3]: 257 ng/mL | Tmax [1, 3]: 0.5 h | concentration at 0 h ([1]; 250 mg/kg GE oral, 0 h, −βgd): 0 ng/mL | concentration at 0.087 h ([1]; 250 mg/kg GE oral, 0.087 h, −βgd): 0 ng/mL | concentration at 0.167 h ([1]; 250 mg/kg GE oral, 0.167 h, −βgd): 0.11 ± 0.08 ng/mL | concentration at 0.25 h ([1]; 250 mg/kg GE oral, 0.25 h, −βgd): 2.25 ± 1.73 ng/mL | concentration at 0.5 h ([1]; 250 mg/kg GE oral, 0.5 h, −βgd): 1.79 ± 1.82 ng/mL | concentration at 1 h ([1]; 250 mg/kg GE oral, 1 h, −βgd): 1.04 ± 0.79 ng/mL | concentration at 2 h ([1]; 250 mg/kg GE oral, 2 h, −βgd): 27.2 ± 38.4 ng/mL | concentration at 3 h ([1]; 250 mg/kg GE oral, 3 h, −βgd): 2.45 ± 1.73 ng/mL | concentration at 4 h ([1]; 250 mg/kg GE oral, 4 h, −βgd): 0.82 ± 1.16 ng/mL | concentration at 6 h ([1]; 250 mg/kg GE oral, 6 h, −βgd): 3.22 ± 4.03 ng/mL | concentration at 8 h ([1]; 250 mg/kg GE oral, 8 h, −βgd): 0.77 ± 0.57 ng/mL | concentration at 12 h ([1]; 250 mg/kg GE oral, 12 h, −βgd): 0.33 ± 0.44 ng/mL | concentration at 0 h ([1]; 250 mg/kg GE with 50 mg/kg ketoconazole oral, 0 h, −βgd): 0 ng/mL | concentration at 0.087 h ([1]; 250 mg/kg GE with 50 mg/kg ketoconazole oral, 0.087 h, −βgd): 0.31 ± 0.44 ng/mL | concentration at 0.167 h ([1]; 250 mg/kg GE with 50 mg/kg ketoconazole oral, 0.167 h, −βgd): 5.71 ± 4.25 ng/mL | concentration at 0.25 h ([1]; 250 mg/kg GE with 50 mg/kg ketoconazole oral, 0.25 h, −βgd): 35.9 ± 44.5 ng/mL | concentration at 0.5 h ([1]; 250 mg/kg GE with 50 mg/kg ketoconazole oral, 0.5 h, −βgd): 37900 ng/mL | concentration at 1 h ([1]; 250 mg/kg GE with 50 mg/kg ketoconazole oral, 1 h, −βgd): 104 ± 110 ng/mL | concentration at 2 h ([1]; 250 mg/kg GE with 50 mg/kg ketoconazole oral, 2 h, −βgd): 70900 ng/mL | concentration at 3 h ([1]; 250 mg/kg GE with 50 mg/kg ketoconazole oral, 3 h, −βgd): 65.2 ± 54.3 ng/mL | concentration at 4 h ([1]; 250 mg/kg GE with 50 mg/kg ketoconazole oral, 4 h, −βgd): 5.87 ± 1.18 ng/mL | concentration at 6 h ([1]; 250 mg/kg GE with 50 mg/kg ketoconazole oral, 6 h, −βgd): 1.09 ± 0.93 ng/mL | concentration at 8 h ([1]; 250 mg/kg GE with 50 mg/kg ketoconazole oral, 8 h, −βgd): 10.4 ± 11.1 ng/mL | concentration at 12 h ([1]; 250 mg/kg GE with 50 mg/kg ketoconazole oral, 12 h, −βgd): 0.74 ± 1.05 ng/mL | remaining at 0.5 h, 10 µM ([2]; both sexes, pooled liver microsomes, pH 7.4, substrate 10 µM, n = 2, read-out: % Remaining at 30 min): 56% | Intrinsic Clearance ([2]; human liver microsomes, substrate 10 µM, 45 mg protein/g liver): 6.6 mL/min/g Liver
